Structures are written as SMILES. Values after ≈ are worked out from the molar mass of the structure shown.

MIC data for 29 molecules are collected here from patent publication US20230135729A1, “COMPOUND WITH ANTI-SPORE ACTIVITY AND PHARMACEUTICAL COMPOSITION THEREOF” (priority 2020, published 2023).

Format in all cases: cell-based
Assay [1] has as its system spores of ATCC 630 strain. Nature of the assay: Inhibition of germination of C. difficile spores (MIC), strain ATCC 630. The conditions noted are these: Clostridioides difficile, ATCC630, 1 h; strain 630; sodium taurocholate as germinant, BHIS medium, 37° C., OD580 for 60 min; read-out: MIC (minimum concentration that completely inhibits spore germination). Put shortly:
(§1)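 Spores heat-activated for 30 min at 65° C and washed, then preincubated with compound (10 mM DMSO stock) in BHIS at 37° C. Germination was triggered with sodium taurocholate, and OD580 was read each minute for 60 min. Inhibition = 100% − germination rate, from final vs initial OD relative to germinant-only controls.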

Assay [2] relates to spores of ATCC BBA1870 strain. Nature of the assay: Inhibition of germination of C. difficile spores (MIC), strain ATCC BBA1870. Conditions: Clostridioides difficile, ATCCBBA1870STRAIN, 1 h; strain 1870; sodium taurocholate as germinant, BHIS medium, 37° C., OD580 for 60 min; read-out: MIC (minimum concentration that completely inhibits spore germination). Put shortly: as §1
Assay [3] deals with spores of ATCC 43255 strain. Nature of the assay: Inhibition of germination of C. difficile spores (MIC), strain ATCC 43255. The conditions noted are these: Clostridioides difficile, ATCC43255, 1 h; strain 43255; sodium taurocholate as germinant, BHIS medium, 37° C., OD580 for 60 min; read-out: MIC (minimum concentration that completely inhibits spore germination). Put shortly: as §1

As for `CC[C@@H](NC(=O)C[C@@H](C)[C@H]1CC[C@H]2[C@@H]3[C@H](N)C[C@@H]4CC(=O)CC[C@]4(C)[C@H]3CC[C@]12C)c1ccc(Cl)s1` [Compound I-172], the MIC in assay [1], in assay [2] and in assay [3] was 32 µM (≈ 17.1 µg/mL) each time.

Consider `CC(C)[C@@H](NC(=O)C[C@@H](C)[C@H]1CC[C@H]2[C@@H]3CC(=O)[C@@H]4CC(=O)CC[C@]4(C)[C@H]3CC[C@]12C)c1ccc(Cl)s1` [Compound I-131], for which the MIC in assay [1], in assay [2] and in assay [3] was 2 µM (≈ 1.09 µg/mL) throughout.

Consider `CC(C)[C@@H](NC(=O)C[C@@H](C)[C@H]1CC[C@H]2[C@@H]3[C@@H](O)C[C@@H]4CC(=O)CC[C@]4(C)[C@H]3CC[C@]12C)c1ccc(Cl)s1` [Compound I-164], for which the MIC in assay [1], in assay [2] and in assay [3] was 32 µM (≈ 17.5 µg/mL) each time.

As to `C[C@H](NC(=O)C[C@@H](C)[C@H]1CC[C@H]2[C@@H]3C(=O)C[C@@H]4CC(=O)CC[C@]4(C)[C@H]3CC[C@]12C)c1ccccc1` [Compound I-24], the MIC in assay [1], in assay [2] and in assay [3] was greater than 256 µM in each case.

For `C[C@H](CC(=O)NCc1nccs1)[C@H]1CC[C@H]2[C@@H]3C(=O)C[C@@H]4C[C@H](O)CC[C@]4(C)[C@H]3CC[C@]12C` [Compound I-15], the figures for the MIC in assay [1], in assay [2] and in assay [3] were 32 µM (≈ 15.1 µg/mL), 32 µM (≈ 15.1 µg/mL) and 64 µM (≈ 30.3 µg/mL), respectively.

For the molecule `CC(C)C(NC(=O)C[C@@H](C)[C@H]1CC[C@H]2[C@@H]3C(=O)C[C@@H]4CC(=O)CC[C@]4(C)[C@H]3CC[C@]12C)c1ccc(S(=O)(=O)O)s1` (stereo partly drawn) [Compound I-81], the MIC in assay [1], in assay [2] and in assay [3] was 32 µM (≈ 18.9 µg/mL) in each case.

For `C[C@H](CC(=O)NC(C(=O)O)c1ccccc1)[C@H]1CC[C@H]2[C@@H]3C(=O)C[C@@H]4CC(=O)CC[C@]4(C)[C@H]3CC[C@]12C` (stereo partly drawn) [Compound I-63], the results for the MIC in assay [1], in assay [2] and in assay [3] were 256 µM (≈ 130 µg/mL), greater than 256 µM and 256 µM (≈ 130 µg/mL), respectively.

Regarding `CCC(NC(=O)C[C@@H](C)[C@H]1CC[C@H]2[C@@H]3C(=O)C[C@@H]4CC(=O)CC[C@]4(C)[C@H]3CC[C@]12C)c1ccc(S(=O)(=O)O)s1` (stereo partly drawn) [Compound I-39], the MIC turned out to be 0.5 µM (≈ 0.289 µg/mL) in assay [1], 1 µM (≈ 0.578 µg/mL) in assay [2] and 0.5 µM (≈ 0.289 µg/mL) in assay [3].

As for `CC(C)[C@@H](NC(=O)C[C@@H](C)[C@H]1CC[C@H]2[C@@H]3[C@H](O)CC4=CC(=O)CC[C@]4(C)[C@H]3CC[C@]12C)c1ccc(Cl)s1` [Compound I-158-2], the MIC in assay [1], in assay [2] and in assay [3] was 0.5 µM (≈ 0.273 µg/mL) in each case.

As for `CCC(NC(=O)C[C@@H](C)[C@H]1CC[C@H]2[C@@H]3[C@H](O)C[C@@H]4CC(=O)CC[C@]4(C)[C@H]3CC[C@]12C)c1ccc(S(=O)(=O)O)s1` (stereo partly drawn) [Compound I-92], the MIC in assay [1] was 16 µM (≈ 9.28 µg/mL); in assay [2] it was 16 µM (≈ 9.28 µg/mL); in assay [3], 32 µM (≈ 18.6 µg/mL).

In the case of `CC(C)[C@@H](NC(=O)C[C@@H](C)[C@H]1CC[C@H]2[C@@H]3[C@H](O)C[C@@H]4C[C@@H](O)CC[C@]4(C)[C@H]3CC[C@]12C)c1ccc(Cl)s1` [Compound I-144], the MIC in assay [1] worked out at 2 µM (≈ 1.1 µg/mL); in assay [2], 4 µM (≈ 2.2 µg/mL); in assay [3], 2 µM (≈ 1.1 µg/mL).

For the molecule `CC[C@@H](NC(=O)C[C@@H](C)[C@H]1CC[C@H]2[C@@H]3C(=O)C[C@@H]4CC(=O)CC[C@]4(C)[C@H]3CC[C@]12C)c1ccc(C=O)s1` [Compound I-199], the MIC in assay [1], in assay [2] and in assay [3] was 16 µM (≈ 8.41 µg/mL) throughout.

For the molecule `C[C@H](CC(=O)NCc1cccs1)[C@H]1CC[C@H]2[C@@H]3[C@H](O)[C@H](O)[C@@H]4C[C@H](O)CC[C@]4(C)[C@H]3CC[C@]12C` [Compound I-21], the MIC was 4 µM (≈ 1.96 µg/mL) in assay [1], 8 µM (≈ 3.92 µg/mL) in assay [2] and 8 µM (≈ 3.92 µg/mL) in assay [3].

`CC(NC(=O)C[C@@H](C)[C@H]1CC[C@H]2[C@@H]3[C@H](O)C[C@@H]4C[C@H](O)CC[C@]4(C)[C@H]3CC[C@]12C)c1cccs1` (stereo partly drawn) [Compound I-8]: the MIC stood at 4 µM (≈ 1.95 µg/mL) in assay [1], 4 µM (≈ 1.95 µg/mL) in assay [2] and 2 µM (≈ 0.976 µg/mL) in assay [3].

As for `CC(C)[C@@H](NC(=O)C[C@@H](C)[C@H]1CC[C@H]2[C@@H]3[C@H](OS(=O)(=O)O)C[C@@H]4CC(=O)CC[C@]4(C)[C@H]3CC[C@]12C)c1ccc(Cl)s1` [Compound I-112], the MIC in assay [1] was 0.5 µM (≈ 0.314 µg/mL); in assay [2], 0.5 µM (≈ 0.314 µg/mL); in assay [3], 0.25 µM (≈ 0.157 µg/mL).

In the case of `C[C@H](CC(=O)NCc1nccs1)[C@H]1CC[C@H]2[C@@H]3[C@H](O)C[C@@H]4C[C@H](O)CC[C@]4(C)[C@H]3CC[C@]12C` [Compound I-7], the MIC in assay [1], in assay [2] and in assay [3] was 16 µM (≈ 7.6 µg/mL) throughout.

On to `CC(NC(=O)C[C@@H](C)[C@H]1CC[C@H]2[C@@H]3[C@H](O)C[C@@H]4C[C@H](O)CC[C@]4(C)[C@H]3C[C@H](O)[C@]12C)c1ccccc1` (stereo partly drawn) [Compound I-19], for which the MIC in assay [1] stood at 32 µM (≈ 15.9 µg/mL); in assay [2], 64 µM (≈ 31.9 µg/mL); in assay [3], 32 µM (≈ 15.9 µg/mL).

For the molecule `CC(C)[C@@H](NC(=O)C[C@@H](C)[C@H]1CC[C@H]2[C@@H]3C(=O)C[C@@H]4CC(=O)CC[C@]4(C)[C@H]3CC[C@]12C)c1ccc(Br)s1` [Compound I-80], the MIC in assay [1], in assay [2] and in assay [3] was 0.125 µM (≈ 0.0738 µg/mL) throughout.

In the case of `C[C@H](CC(=O)NCc1ccco1)[C@H]1CC[C@H]2[C@@H]3[C@H](O)C[C@@H]4C[C@H](O)CC[C@]4(C)[C@H]3CC[C@]12C` [Compound I-2], the MIC in assay [1] is 8 µM (≈ 3.66 µg/mL); in assay [2], 16 µM (≈ 7.32 µg/mL); in assay [3] it was 8 µM (≈ 3.66 µg/mL).

In the case of `CC(=O)O[C@@H]1CC2=CC(=O)C=C[C@]2(C)[C@H]2CC[C@]3(C)[C@@H]([C@H](C)CC(=O)N[C@@H](c4ccc(Cl)s4)C(C)C)CC[C@H]3[C@H]12` [I-162 -1], the MIC is 0.5 µM (≈ 0.293 µg/mL) in assay [1], 0.25 µM (≈ 0.147 µg/mL) in assay [2] and 0.5 µM (≈ 0.293 µg/mL) in assay [3].

Consider `CC[C@@H](NC(=O)C[C@@H](C)[C@H]1CC[C@H]2[C@@H]3C(=O)C[C@@H]4C[C@H](OC)CC[C@]4(C)[C@H]3CC[C@]12C)c1ccc(Cl)s1` [Compound I-167], for which the values for the MIC in assay [1], in assay [2] and in assay [3] were 128 µM (≈ 70.2 µg/mL), 256 µM (≈ 140 µg/mL) and 128 µM (≈ 70.2 µg/mL), respectively.

With `CC(C)[C@H](NC(=O)C[C@@H](C)[C@H]1CC[C@H]2[C@@H]3[C@H](O)[C@H](O)[C@@H]4C[C@H](O)CC[C@]4(C)[C@H]3CC[C@]12C)c1ccc(Br)s1` [Compound I-121], the MIC in assay [1], in assay [2] and in assay [3] was greater than 256 µM throughout.

In the case of `CCC(NC(=O)C[C@@H](C)[C@H]1CC[C@H]2[C@@H]3[C@H](O)[C@H](O)[C@@H]4C[C@H](O)CC[C@]4(C)[C@H]3CC[C@]12C)c1ccc(Br)s1` (stereo partly drawn) [Compound I-118], the MIC was 8 µM (≈ 4.77 µg/mL) in assay [1], 16 µM (≈ 9.55 µg/mL) in assay [2] and 8 µM (≈ 4.77 µg/mL) in assay [3].

As for `C[C@H](CC(=O)NC(c1cccs1)C1CCCC1)[C@H]1CC[C@H]2[C@@H]3C(=O)C[C@@H]4CC(=O)CC[C@]4(C)[C@H]3CC[C@]12C` (stereo partly drawn) [Compound I-53], the MIC in assay [1], in assay [2] and in assay [3] was 32 µM (≈ 17.2 µg/mL) in each case.

For `CC(NC(=O)C[C@@H](C)[C@H]1CC[C@H]2[C@@H]3C(=O)C[C@@H]4CC(=O)CC[C@]4(C)[C@H]3CC[C@]12C)c1cccs1` (stereo partly drawn) [Compound I-27], the MIC in assay [1], in assay [2] and in assay [3] was 2 µM (≈ 0.967 µg/mL) throughout.

On to `C[C@H](CC(=O)NCC1CC1)[C@H]1CC[C@H]2[C@@H]3[C@H](O)C[C@@H]4C[C@H](O)CC[C@]4(C)[C@H]3CC[C@]12C` [Compound I-1], for which the MIC in assay [1], in assay [2] and in assay [3] was 32 µM (≈ 13.8 µg/mL) in each case.

For the molecule `C[C@H](CC(=O)NC(CC(=O)O)c1ccccc1)[C@H]1CC[C@H]2[C@@H]3C(=O)C[C@@H]4CC(=O)CC[C@]4(C)[C@H]3CC[C@]12C` (stereo partly drawn) [Compound I-64], the MIC in assay [1], in assay [2] and in assay [3] was greater than 256 µM in each case.

Consider `CCCCCCCC(=O)O[C@@H]1C[C@@H]2CC(=O)CC[C@]2(C)[C@H]2CC[C@]3(C)[C@@H]([C@H](C)CC(=O)N[C@H](CC)c4ccc(Cl)s4)CC[C@H]3[C@H]12` [Compound I-183], for which the MIC worked out at 128 µM (≈ 84.5 µg/mL) in assay [1], 256 µM (≈ 169 µg/mL) in assay [2] and 128 µM (≈ 84.5 µg/mL) in assay [3].

Turning to `CC[C@@H](NC(=O)C[C@@H](C)[C@H]1CC[C@H]2[C@@H]3[C@H](OC(C)=O)CC4=CC(=O)C=C[C@]4(C)[C@H]3CC[C@]12C)c1ccc(Br)s1` [I-159 -1], the MIC in assay [1], in assay [2] and in assay [3] was 0.5 µM (≈ 0.308 µg/mL) throughout.
